Data on 7 molecules can be found in patent publication US4952591A, “Anti-ulcer urea derivatives” (Kyorin Pharmaceutical Co., Ltd., priority 1987, dated 1990).

In test [1] the test system is Gastric secretion (acid output). The test is described as follows: Gastric antisecretion (Acute fistula method, histamine-stimulated, pylorus-ligated rats). Format: in vivo, Male Donryu rats. The settings on record: i.d., histamine 10 mg/kg i.m. How it is done:
Male Donryu rats, weighing about 200 g, were fasted for 24 hours before the experiment. […] The gastric cannula was implanted in the forestomach (Acute fistula method). Gastric secretion from cannula was collected into test tubes every one hour and the acid output was titrated. Histamine (10 mg/kg) was intramuscularly given after the first collection of gastric juice. Drugs were intraduodenally given after the second collection of the gastric juice.

The target of the next test is T1, Histamine H2-receptor (Cavia porcellus, UniProt P47747).
T1 construct: The right atrium was dissected and suspended at 0.5 g tension in a 10 ml organ bath; from tissue; host or cells: isolated right atrium of male Hartley guinea-pigs
The test is described as follows: Histamine H2-receptor antagonism (isolated right atrium, positive chronotropic effect of histamine). Set-up: species or system Male Hartley guinea-pigs. The settings on record: guinea-pig right atrium, 32±1° C., drugs added 5 minutes before histamine; read-out: pA2 (converted). How it is done: Male Hartley guinea-pigs, weighing between 300 and 400 g, were used in the experiment. The right atrium was dissected and suspended at 0.5 g tension in a 10 ml organ bath containing Krebs-Henseleit's solution, kept at 32±1° C. and bubbled with the gas mixture (95 % O2 and 5 % CO2). Contractions were recorded with a force-displacement transducer through a strain gange. […] Drugs were added into the organ bath 5 minutes before histamine treatment.

For test [2], the system named is 0.6 N HCl-induced gastric lesions. The test is described as follows: Gastric cytoprotection (0.6 N HCl-induced gastric lesions). Format: in vivo, Male Donryu rats. The settings on record: p.o., an hour before 0.6 N HCl, lesion length. How it is done:
Male Donryu rats, weighing about 200 g, were deprived of food and water for 24 hours. One ml of 0.6N HCl solution was given orally and the animals were killed an hour later. […] The length (mm) of each gastric lesion was measured under a dissecting microscope, summed, and used as an index for evaluation. Drugs were orally given an hour before 0.6 N HCl solution treatment.

T1 sequence (P47747 whole entry): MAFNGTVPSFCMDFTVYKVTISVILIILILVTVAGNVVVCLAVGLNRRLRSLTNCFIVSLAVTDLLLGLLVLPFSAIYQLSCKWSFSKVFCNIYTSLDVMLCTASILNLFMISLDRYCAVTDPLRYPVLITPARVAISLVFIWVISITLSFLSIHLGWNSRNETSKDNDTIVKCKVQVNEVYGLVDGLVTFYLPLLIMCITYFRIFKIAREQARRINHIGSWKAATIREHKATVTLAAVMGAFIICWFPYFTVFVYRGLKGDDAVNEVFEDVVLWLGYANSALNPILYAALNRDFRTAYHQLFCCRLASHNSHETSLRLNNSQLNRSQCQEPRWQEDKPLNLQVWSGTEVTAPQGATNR

On to `COc1ccc(NC(=O)NCCCOc2cccc(CN3CCCCC3)c2)cc1` [Example 1, N-(4-Methoxyphenyl)-N'-[3-(3-piperidinomethylphenoxy)propyl]urea], for which the “Inhibition (%)” value in test [1] (Dose 12.5 mg/kg) worked out at 70.7%; in test [1] (Dose 25 mg/kg), 98.5%; in test [2] (Dose 25 mg/kg) it was 30.1%; in test [2] (Dose 50 mg/kg), 45.1%; in test [2] (Dose 100 mg/kg) it was 67.4%. Further, the Kb on Histamine H2-receptor is 263 nM.

Consider `CN/C(=N/CCSCc1nc[nH]c1C)NC#N` [Cimetidine, reference compound], for which the “Inhibition (%)” value in test [1] (Dose 12.5 mg/kg) was 51.9%; in test [1] (Dose 25 mg/kg), 80.0%; in test [1] (Dose 50 mg/kg), 100.0%; in test [2] (Dose 100 mg/kg), 22.0%.

For `CC(C)NC(=O)NCCCOc1cccc(CN2CCCCC2)c1` [Example 54], the “Inhibition (%)” value in test [1] (Dose 2 mg/kg) stood at 16.1%; in test [1] (Dose 5 mg/kg), 68.2%; in test [1] (Dose 10 mg/kg), 78.8%; in test [2] (Dose 6 mg/kg), 36.1%; in test [2] (Dose 25 mg/kg) it was 73.0%; in test [2] (Dose 50 mg/kg) it was 70.1%. The Kb on Histamine H2-receptor is 27.5 nM.

With `CCCNC(=O)NCCCOc1cccc(CN2CCCCC2)c1` [Example 8], the “Inhibition (%)” value was 49.5% in test [1] (Dose 1 mg/kg); 77.5% in test [1] (Dose 3 mg/kg); 81.3% in test [1] (Dose 6 mg/kg); 26.4% in test [2] (Dose 1 mg/kg); 55.4% in test [2] (Dose 6 mg/kg); 67.4% in test [2] (Dose 16 mg/kg). For the same molecule, on Histamine H2-receptor, the Kb is 41.7 nM.

`CCOc1ccc(NC(=O)NCCCOc2cccc(CN3CCCCC3)c2)cc1` [Example 51, N-(4-Ethoxyphenyl)-N'-[3-(3-piperidinomethylphenoxy)propyl]urea]: the “Inhibition (%)” value in test [1] (Dose 1 mg/kg) came out at 29.0%; in test [1] (Dose 6 mg/kg), 52.7%; in test [1] (Dose 25 mg/kg), 97.1%; in test [2] (Dose 50 mg/kg) it was 63.4%. Also, the Kb on Histamine H2-receptor is 251 nM.

Take `CCNC(=O)NCCCOc1cccc(CN2CCCCC2)c1` [Example 16, N-Ethyl-N'-[3-(3-piperidinomethylphenoxy)propyl]urea]: the “Inhibition (%)” value is recorded as 49.5% in test [1] (Dose 5 mg/kg); 77.2% in test [1] (Dose 10 mg/kg); 52.6% in test [2] (Dose 6 mg/kg); 78.0% in test [2] (Dose 25 mg/kg); 89.4% in test [2] (Dose 50 mg/kg). The Kb at Histamine H2-receptor is 66.1 nM.

For `CNC(=O)NC/C=C\COc1cccc(CN2CCCCC2)c1` [Example 29], the “Inhibition (%)” value in test [1] (Dose 3 mg/kg) is 39.1%; in test [1] (Dose 5 mg/kg), 80.8%; in test [2] (Dose 5 mg/kg) it was 49.3%; in test [2] (Dose 25 mg/kg) it was 73.8%. For the same molecule, the Kb on Histamine H2-receptor was 35.5 nM.
